Test results taken from article PMC7248252, “Accumulation of TB-Active Compounds in Murine Organs Relevant to Infection by Mycobacterium tuberculosis” (Frontiers in Pharmacology, 2020).
Converted amounts (≈) assume the structure as drawn.

Columns and labels:
[1] = mouse, tissue homogenate
[2] = Unbound tissue concentrations (tissue binding by ultracentrifugation of spiked organ homogenate); conditions: 1 μg/ml, 4 h, 37°C
[3] = in vivo, po, 10 mg/kg
[4] = tested on: Mycobacterium tuberculosis; conditions: determined in different experiments, reference not given; cited from earlier work
[5] = set-up: method as in Ishida et al., 1999; conditions: 120 mg/kg, Streptococcus pneumoniae-infected mouse model; ref Ishida et al., 1999; cited from earlier work
[6] = 25 mg/kg, healthy murine lung tissue; ref Irwin et al., 2016; cited from earlier work

Row | SMILES | unbound fractions [1] | Ratio bound ([2]; Blood) | Ratio bound ([2]; Brain) | Ratio bound ([2]; Heart) | Ratio bound ([2]; Kidney) | Ratio bound ([2]; Liver) | Ratio bound ([2]; Lung) | Ratio bound ([2]; Spleen) | Cmax (highest concentration) lung tissue ([3]; mouse) [nmol/mg] | estimated organ free fraction concentration compared with MIC90 ([3]; mouse) | MIC90 [4] [µM] | maximal lung concentration [5] [µg/g] | other results
1 | CCCCCCCCCOc1cc2c(=O)c(C(=O)NCCOCCO)cn(CC)c2cc1OCC [RMB041] | 0.18-0.01 | 0.82 | 0.98 | 0.97 | 0.97 | 0.91 | 0.93 | 0.92 | 3.2 | below the MIC90 values | 1.61 (≈ 0.79 µg/mL) | – | –
2 | CC1(C)S[C@@H]2[C@H](NC(=O)[C@H](N)c3ccccc3)C(=O)N2[C@H]1C(=O)O [ampicillin] | – | – | – | – | – | – | – | – | – | – | – | 1.71 | –
3 | C[C@H]1COc2c(N3CCN(C)CC3)c(F)cc3c(=O)c(C(=O)O)cn1c23 [LVX] | – | – | – | – | – | – | – | – | – | – | – | 5.95 | –
4 | O=C(O)c1cn(C2CC2)c2cc(N3CCNCC3)c(F)cc2c1=O [ciprofloxacin] | – | – | – | – | – | – | – | – | – | – | – | 1.10 | –
5 | COc1nc2ccc(Br)cc2cc1[C@@H](c1ccccc1)[C@@](O)(CCN(C)C)c1cccc2ccccc12 [bedaquiline] | – | – | – | – | – | – | – | – | – | – | – | – | Cmax lung tissue [6]: 24 µM
6 | CCN(CC)c1ccc2nc3c4ccccc4c(=Nc4ccccc4)cc-3oc2c1 [PhX1] | 0.18-0.01 | 0.88 | 0.98 | 0.98 | 0.97 | 0.99 | 0.97 | 0.94 | 22.4 ± 2.35 | below the MIC90 values | 0.196 (≈ 0.0771 µg/mL) | – | AUC lung tissue ([3]; male, C57BL/6, mouse): 9669 ± 120.2 min/nmol/mg; AUC heart tissue ([3]; mouse): 12450 ± 45.2 min/nmol/mg; Cmax heart tissue ([3]; mouse): 8.83 ± 3.16 nmol/mg
